Assay results published in publication PMC3568510 (Biochemistry, 2013).

Target: CC3396
Assay type: biochemical, Caulobacter vibrioides (Caulobacter crescentus)

Nc1nc2c(ncn2[C@@H]2O[C@@H]3CO[P@@](O)(=S)O[C@H]4[C@@H](O)[C@H](n5cnc6c(=O)[nH]c(N)nc65)O[C@@H]4CO[P@@](O)(=S)O[C@H]3[C@H]2O)c(=O)[nH]1 [c-(RPRP)-di-Gps]
Ki: ~480 nM

Nc1nc2c(ncn2[C@@H]2O[C@@H]3CO[P@@](O)(=S)O[C@H]4[C@@H](O)[C@H](n5cnc6c(=O)[nH]c(N)nc65)O[C@@H]4CO[P@](O)(=S)O[C@H]3[C@H]2O)c(=O)[nH]1 [c-(RPSP)-di-Gps]
Ki: ~820 nM
